Data from patent US9598448B2, “Osmium (II) arene imino anti-cancer complexes” (University of Warwick, priority 2010, dated 2017).
“Also recorded” adds a separate entry of the source. Where two headings read alike, the source gives them in different places.

Experiments:
MCF-7 breast = test: MTT growth inhibition assay, MCF-7; type: cell-based, human; details: 96 h
Procedure: (§1) Tumor cell growth inhibition was assessed using the MTT assay.^13 2×10^3 cells were inoculated into a 96-well plate and incubated overnight at 37° C. in a humidified atmosphere containing 5% CO2. Complexes were solubilised in DMSO as above, and then diluted in complete cell culture medium to give a broad range of concentrations. Cisplatin was included in the screen as a comparator. Medium was removed from each well and replaced with complex or control solutions, and the plates then incubated for a further 96 hours. After 96 h culture medium was removed and 200 μL of 0.5 mg mL^−1 MTT solution (Sigma) in complete medium added to each well. Following further 4 h incubation, the solution was removed from each well and 150 μL of DMSO (Sigma) added to solubilise the formazan crystals resulting from MTT conversion. Absorbance values for the resulting solutions were read at 550 nm on a microplate reader and cell survival calculated as the absorbance of treated cells divided by the control. Results were expressed in terms of IC50 values (i.e. concentration of compound required to kill 50% of cells) and all experiments were performed in triplicate.
(§2) The following human cancer cell lines were cultured in RPMI 1640 cell culture medium supplemented with 1 mM sodium pyruvate, 2 mM L-glutamine and 10% fetal bovine serum (all from Sigma): A549 non-small cell lung, HCT-116 colon, MCF-7 breast, PC-3 prostate (all from LGC Promochem, Teddington, UK), A2780/cis ovarian (cisplatin-resistant) and RT-112 bladder (both from ECACC, Salisbury, UK).

RT-112 bladder = test: MTT growth inhibition assay, RT-112; type: cell-based, human; details: for IC50: MTT, 96 h
Procedure: as §1, §2

[1] = test system: A2780/cis ovarian (cisplatin-resistant); test: MTT growth inhibition assay, A2780/cis; type: cell-based, human; details: 96 h
Procedure: as §1, §2

[2] = test system: human ovarian A2780 cancer cells; test: SRB growth inhibition assay, A2780; type: cell-based
Procedure: The concentrations of the osmium complexes that inhibit 50% of the proliferation of human ovarian A2780 cancer cells were determined by sulforhodamine B test. A2780 cells were seeded in 96-well plate (Falcon) at 5000 cells/well, after the incubation for 48 h, The complexes were solubilised in DMSO (Sigma) to provide 10 mM stocks. The stocks were serially diluted by cell culture media to give concentrations four-fold than the final concentrations for the assay. The dilutions of complexes in cell culture media were added to the 96-well plate with cells in triplicates to achieve the final concentrations. The final DMSO concentration in each well was no more than 1% (v/v). The complexes were removed after 24 h. The cells were washed with Phosphate Buffered Saline once and cell culture media was added 150 μL/well. The cells were recovered for 72 h. The surviving cells were fixed by adding 150 μL/well of 50% (w/v) trichloroacetic acid and incubated for 1 h at 277 K (277 K). The plates were washed with tap water three times and dried under a flow of warm air, 0.4% sulforhodamine B (Sigma) solution 100 μL/well followed by washing with 1% acetic acid five times and dried under a flow of warm air. The dye was dissolved in 10 mM Tris buffer […] The absorbance of each well was obtained by the Multiskan Ascent plate reader (Labsystems) at 540 nm. The absorbance value of SRB in each well is directly proportional to the cell number. Then the absorbance can be plotted against concentration and the IC50 determined by using Origin software.
The cytotoxicity studies were carried out as described previously above.

A549 non-small cell lung = test: MTT growth inhibition assay, A549; type: cell-based, human; details: 96 h
Procedure: as §1, §2

[3] = test system: human tumor 60-cell line panel; details: Data from NCI/DTP screening: October 2009, 48 h incubation; cited from earlier work
PC-3 prostate = test: MTT growth inhibition assay, PC-3; type: cell-based, human; details: 96 h
Procedure: as §1, §2

HCT-116 colon = test: MTT growth inhibition assay, HCT-116; type: cell-based, human; details: 96 h
Procedure: as §1, §2

[4] = test system: HCT-116 colon adenocarcinoma s.c. xenograft model; test: In vivo efficacy in HCT-116 s.c. xenograft model; details: 8.0 mg kg^−1
[5] = cited from earlier work
[6] = test system: human A549 lung cancer cells; details: cited from earlier work
pKa of hydroxyl group = type: physicochemical
[7] = test system: Balb/c immunodeficient nude mice bearing HCT-116 tumours; test: Evaluation of in vivo toxicity in nude mouse HCT-116 xenograft model; details: i.v. day 0, doses from 2 up to 40 mg kg^−1, monitored 15 days
Procedure: Female Balb/c immunodeficient nude mice (Harlan, Loughborough, UK) aged 6-12 weeks were used. Mice received Harlan 2018 diet (Harlan) and water ad libitum. Mice were kept in cages in an air-conditioned room with regular alternating cycles of light and darkness. All animal procedures were carried out under a project license issued by the UK Home Office and UKCCCR guidelines (Workman P, Twentyman P, Balkwill F et al: United Kingdom Co-ordinating Committee on Cancer Research (UKCCCR) Guidelines for the Welfare of Animals in Experimental Neoplasia (Second Edition). Br J Cancer 77: 1-10, 1998) were followed throughout.
HCT-116 was used in the study. Tumours were excised from a donor animal, placed in sterile physiological saline containing antibiotics and cut into small fragments of approximately 2 mm^3. Under brief general inhalation anaesthesia, fragments were implanted in the […] abdominal flank of each mouse using a trocar. Once the tumours could accurately be measured using callipers (mean tumour volume of approximately 50 mm^3), treatment commenced. Complexes 3 and 6 were solubilised in 10% DMSO; 5% Tween-80; 85% saline and were administered intravenously to groups of 2 mice on day 0. Animals were weighed frequently and monitored for any deleterious effects over a period of 15 days.

[8] = Stability and hydrolysis (1H NMR, MS, UV-vis); type: physicochemical; details: 310 K, 24 h, 95% deuterated phosphate buffer (10 mM)/5% MeOD-d4
tubulin = test: Tubulin polymerization assay; type: biochemical; details: 37° C., 60 min; for Inhibition of Tubulin Polimerziation: Osmium Compounds at 10 μM
Procedure: To follow the anticancer mechanism indicated by COMPARE, We have investigated whether osmium complexes can interacted directly with tubulin.
A Cytoskeleton tubulin polymerization assay kit (catalog no BK004) was used in the tubulin polymerization study. Briefly, 10 μL of general tubulin buffer (80 mM PIPES, pH 6.9, 2 mM MgCl2, and 0.5 mM EGTA) containing osmium compound, colchicine or taxol was pipetted into the prewarmed 96 well microplate. Tubulin (defrosted to room temperature from −80° C. and then placed on ice before use) was diluted with tubulin polymerization buffer with 1 mM GTP to a final concentration of 4 mg mL^−1. Diluted tubulin (100 μL) was added into the wells containing osmium compound, colchicine or taxol. Diluted tubulin (100 μL) mixed with general tubulin buffer (10 μL) served as control. The absorbance at 340 nm was read immediately with a Tecan microplate reader.

[9] = SRB, 24 h exposure, 72 h recovery, read-out: IC50 values for azopyridine complexes against A2780 ovarian cancer cells
[10] = SRB, 24 h exposure, 72 h recovery, read-out: IC50 values for iminopyridine complexes against A2780 ovarian cancer cells
[11] = A2780 human ovarian cancer cells, read-out: IC50 values against A2780
[12] = SRB, 24 h exposure, 72 h recovery, read-out: IC50 to A2780 cell line

N.N.[Cl][Pt][Cl] [Cisplatin, reference compound]
IC50 (MCF-7 breast): 3 µM | IC50 (RT-112 bladder): 1.4 µM | IC50 [1]: 4 µM | IC50 [2, 9]: 2 µM | IC50 [2, 10]: 2 µM | IC50 (A549 non-small cell lung): 4.1 µM | GI50 [3]: 10.3 µM | TGI [3]: 50.7 µM | IC50 (PC-3 prostate): 21.5 µM | IC50 (HCT-116 colon): 2.6 µM | Maximum % weight loss [4]: 8% | Median tumour doubling time [4]: 6.4 days | day of maximum % weight loss [4]: 6 days

F[P-](F)(F)(F)(F)F.[I-].[Os+2].c1ccc(-c2ccccc2)cc1.c1ccc(N=Nc2ccccn2)cc1 [Complex 1, [(η^6-bip)Os(Azpy)I]PF6]
IC50 [2, 9]: 5.4 µM

Cc1ccc(C(C)C)cc1.F[P-](F)(F)(F)(F)F.[I-].[Os+2].c1ccc(N=Nc2ccccn2)cc1 [Complex 2, [(η^6-p-cym)Os(Azpy)I]PF6]
IC50 [2, 9]: 10.2 µM

Cc1ccc(C(C)C)cc1.F[P-](F)(F)(F)(F)F.Oc1ccc(N=Nc2ccccn2)cc1.[I-].[Os+2] [Complex 4, [(η^6-p-cym)Os(Azpy-OH)I]PF6]
IC50 [2, 9]: 0.3 µM

CN(C)c1ccc(N=Nc2ccccn2)cc1.F[P-](F)(F)(F)(F)F.[I-].[Os+2].c1ccc(-c2ccccc2)cc1 [Complex 5, [(η^6-bip)Os(azpy-NMe2)I]PF6]
IC50 [2, 11]: 0.14 µM

CN(C)c1ccc(N=Nc2ccccn2)cc1.F[P-](F)(F)(F)(F)F.[Cl-].[Os+2].c1ccc(-c2ccccc2)cc1 [Complex 11, [(η^6-bip)Os(azpy-NMe2)Cl]PF6]
solubility (in water / under test conditions), earlier report ([5]; listed as 11): low solubility | solubility (in water / under test conditions), earlier report ([5]; listed as [(η^6-bip)Os(Azpy-NMe2)Cl]PF6): poor solubility in water | cytotoxicity against the A549 cancer cell line [6]: did not show significant cytotoxicity | activity towards human A549 lung cancer cells ([6]; up to concentrations of 100 μM): No activity | IC50 [2, 9]: 3.9 µM

[(η^6-bip)Os(Azpy)Cl]PF6 [Complex 7]
IC50 [2, 9]: 13.9 µM

[(η^6-bip)Os(Azpy-O)I].0.5H2O [3*]
pKa of the hydroxyl group (pKa of hydroxyl group): less than 7 | IC50 (MCF-7 breast): 0.25 µM | IC50 (RT-112 bladder): 0.4 µM | difference in potency to cisplatin, RT-112 (RT-112 bladder; RT-112): 3 fold | IC50 [1]: < 0.3 µM | IC50 [2, 11]: 0.14 µM | toxicity / deleterious effects [7]: no evident toxicity; also recorded: negligible deleterious effects | IC50 (A549 non-small cell lung): 0.4 µM | IC50 (PC-3 prostate): < 0.3 µM | IC50 (HCT-116 colon): < 0.3 µM

[(η^6-bip)Os(azpy-OH)Cl]PF6 [Complex 9]
IC50 [2, 9]: 0.8 µM

[(η^6-bip)Os(pp)I]PF6 [Complex 14]
IC50 [2, 10]: 18.6 µM

[(η^6-p-cym)Os(Azpy)Cl]PF6 [Complex 8]
stability and hydrolysis in aqueous solution [8]: disappearance of the peaks corresponding to the azopyridine ligand | IC50 [2, 11]: > 50 µM | IC50 [2, 9]: > 50 µM

[(η^6-p-cym)Os(Azpy-OH)Cl]PF6 [Complex 10]
IC50 [2, 9]: 1.3 µM

[(η^6-p-cym)Os(pp)Cl]PF6 [Complex 15]
IC50 [2, 10]: 26.2 µM

[(η^6-p-cym)Os(pp-NMe2)Cl]PF6 [Complex 16]
IC50 [2, 10]: 3.5 µM

[(η^6-p-cym)Os(pp-NMe2)I]PF6 [Complex 13]
IC50 [2, 10]: 0.4 µM

[Os(η^6-bip)(1-CF3-4-Cl-Azpy)I]PF6 [FY107]
Inhibition of Tubulin Polimerziation (tubulin): 13.0% | IC50 [2, 12]: 5.7 µM

[Os(η^6-bip)(1-Cl-azpy)I]PF6 [FY110]
Inhibition of Tubulin Polimerziation (tubulin): 11.4% | IC50 [2, 12]: 3.7 µM

[Os(η^6-bip)(2-Br-Azpy)I]PF6 [FY061]
IC50 [2, 12]: 0.59 µM

[Os(η^6-bip)(2-Cl-Azpy)I]PF6 [FY078]
IC50 [2, 12]: 1 µM

[Os(η^6-bip)(2-F-Azpy)I]PF6 [FY069]
Inhibition of Tubulin Polimerziation (tubulin): 21.0% | IC50 (tubulin; purified tubulin): ~20 µM | effect on amount of tubulin polymerized (tubulin; purified tubulin): reduced the amount of tubulin polymerized in a dose-dependent manner | IC50 [2, 12]: 0.63 µM

[Os(η^6-bip)(2-I-Azpy)I]PF6 [FY070]
IC50 [2, 12]: 0.22 µM

[Os(η^6-bip)(3-Cl-Azpy)I]PF6 [FY052]
IC50 [2, 12]: 22 µM

[Os(η^6-bip)(pp)Cl]PF6 [FY098]
IC50 [2, 12]: 4.6 µM

[Os(η^6-bip)(pp-NMe2)Cl]PF6 [FY093]
IC50 [2, 12]: 0.44 µM

[Os(η^6-bip)(pp-NMe2)I]PF6 [FY012]
IC50 [2, 12]: 0.14 µM

[Os(η^6-bip)(pp-OH)Cl]PF6 [FY150]
IC50 [2, 12]: 2.4 µM

[Os(η^6-p-cym)(1-Cl-Azpy)I]PF6 [FY112]
IC50 [2, 12]: 9 µM

[Os(η^6-p-cym)(2-I-Azpy)I]PF6 [FY067]
IC50 [2, 12]: 2.4 µM

[Os(η^6-p-cym)(OH-Azpy-NO2)Cl]PF6 [FY033]
IC50 [2, 12]: 0.3 µM

[Os(η^6-p-cym)(OH-Azpy-NO2)I]PF6 [FY036]
IC50 [2, 12]: 0.29 µM

[Os(η^6-p-cym)(abpy))I]PF6 [FY043]
IC50 [2, 12]: 10.8 µM

[Os(η^6-p-cym)(pp-OH)Cl]PF6 [FY119]
IC50 [2, 12]: 5.5 µM
